# Reference: PMC6091245, “Genome-Wide Identification and Expression Analysis of Cutinase Gene Family in Rhizoctonia cerealis and Functional Study of an Active Cutinase RcCUT1 in the Fungal–Wheat Interaction” (Frontiers in Microbiology, 2018)
# Target: T1, RcCUT1 (MBP-RcCUT1) (Ceratobasidium cereale, UniProt A0A346Q044)
# T1 construct: E. coli BL21 (DE3); amylose resin; about 63 kDa on SDS-PAGE
# Assay: spectrophotometric p-nitrophenol release at […] nm
# Type: biochemical
# Conditions: 1 mM substrate; 20 mM Tris-HCl, 10 mM NaCl, 50 mM sodium taurodeoxycholate, pH 8.0, 20 °C; MBP-tag alone inactive
# T1 sequence (A0A346Q044 entry or part of it): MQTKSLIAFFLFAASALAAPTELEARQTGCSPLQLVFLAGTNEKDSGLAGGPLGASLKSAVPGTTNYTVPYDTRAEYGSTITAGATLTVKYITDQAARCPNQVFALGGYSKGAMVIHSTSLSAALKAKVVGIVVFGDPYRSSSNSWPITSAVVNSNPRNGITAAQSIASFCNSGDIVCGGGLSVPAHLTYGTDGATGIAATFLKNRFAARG
compound,measurement,value
CCCC(=O)Oc1ccc([N+](=O)[O-])cc1 [p-nitrophenyl butyrate],spectrophotometric p-nitrophenol release at 405 nm,the purified MBP-RcCUT1 had the enzymatic activity for hydrolyzing pNPB substrate
